In US4808616A, “6-substituted androsta-1,4-diene-3,17-diones” (Farmitalia Carlo Erba S.r.l., priority 1985, dated 1989):

Columns and labels:
[1] = molecular target: T1, human placental aromatase (Homo sapiens, UniProt P11511); experiment: Inhibition of human placental aromatase in vitro; format: biochemical
T1 construct: isolated from the microsomal fraction of human placental tissue; from tissue; host or cells: human placenta, microsomal fraction
T1 sequence (P11511 1-503): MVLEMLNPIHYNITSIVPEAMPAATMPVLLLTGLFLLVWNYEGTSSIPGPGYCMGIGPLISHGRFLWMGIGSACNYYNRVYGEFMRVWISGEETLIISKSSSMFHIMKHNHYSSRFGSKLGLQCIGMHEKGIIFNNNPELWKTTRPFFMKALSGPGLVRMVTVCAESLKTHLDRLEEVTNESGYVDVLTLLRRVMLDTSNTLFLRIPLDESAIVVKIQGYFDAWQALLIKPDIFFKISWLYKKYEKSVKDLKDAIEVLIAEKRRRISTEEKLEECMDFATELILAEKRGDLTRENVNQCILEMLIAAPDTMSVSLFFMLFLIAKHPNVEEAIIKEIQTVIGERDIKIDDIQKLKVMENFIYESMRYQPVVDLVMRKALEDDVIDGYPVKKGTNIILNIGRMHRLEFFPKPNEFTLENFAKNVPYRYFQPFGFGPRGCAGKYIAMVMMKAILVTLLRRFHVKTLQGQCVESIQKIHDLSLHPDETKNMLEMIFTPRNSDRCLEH

rat ovarian aromatase = experiment: Inhibition of rat ovarian aromatase in vivo (PMSG-treated adult female rats, oral)
[2] = women; cited from earlier work
[3] = 30 mg/kg p.o., rats, ovaries taken 24 hrs later

| SMILES | Relative potency [1] | % Aromatase inhibition at 30 mg/kg p.o. (result in words) (rat ovarian aromatase; [3]) | % Aromatase inhibition at 30 mg/kg p.o. (rat ovarian aromatase; [3]) [%] | effectiveness in vivo by oral route (in words) (rat ovarian aromatase; administered in vivo by oral route) | conjugation after oral administration [2] |
| --- | --- | --- | --- | --- | --- |
| C[C@]12C=CC(=O)C=C1CC[C@@H]1[C@@H]2CC[C@]2(C)OC(=O)CC[C@@H]12 [Δ^1 -testololactone, reference compound] | 0.005 | inactive | – | – | – |
| C[C@]12C=CC(=O)C=C1CC[C@@H]1[C@@H]2CC[C@]2(C)C(=O)CC[C@@H]12 [androsta-1,4-diene-3,17-dione] | – | – | 37 | – | – |
| C[C@]12CCC(=O)C(O)=C1CC[C@@H]1[C@@H]2CC[C@]2(C)C(=O)CC[C@@H]12 [4-hydroxy-androst-4-ene-3,17-dione] | – | inactive | – | ineffective | extensively conjugated after oral administration |
| C=C1C[C@@H]2[C@H](CC[C@]3(C)C(=O)CC[C@@H]23)[C@@]2(C)CCC(=O)C=C12 [6-methylenandrost-4-ene-3,17-dione, reference compound] | – | inactive | – | – | – |
